According to patent US10870634B2, “Histone demethylase inhibitors” (CELGENE QUANTICEL RESEARCH, INC., priority 2016, dated 2020):

Molecular target: T1, JMJD3 (Homo sapiens, UniProt O15054)
T1 construct: purchased BPS Bioscience 50115
Test: JMJD3 in vitro enzyme inhibition assay (AlphaScreen)
Type: biochemical
Settings: 1 nM JMJD3, 250 nM H3K27me3-biotin peptide, 1 μM alpha-ketoglutaric acid
Excerpt: This assay determines the ability of a test compound to inhibit Jarid1B, JMJD2C and JMJD3 demethylase activity. Baculovirus-expressed Jarid1B (GenBank Accession # NM-006618, AA 2-751) was purchased from BPS Bioscience (Cat #50121) or custom made by MolecularThroughput. Baculovirus-expressed JMJD2C (GenBank Accession # BC143571, AA 2-372) was purchased from BPS Bioscience (Cat #50105). Baculovirus-expressed JMJD3 (GenBank Accession # NM_001080424, AA1043-end) was purchased from BPS Bioscience (Cat #50115).
The ability of test compounds to inhibit the activity of JMJD3 was determined in 384-well plate format under the following reaction conditions: 1 nM JMJD3, 250 nM H3K27me3-biotin labeled peptide (Anaspec cat #64367), 1 μM alpha-ketoglutaric acid in assay buffer of 50 mM HEPES, pH 7.3, 0.005% Brij35, 0.5 mM TCEP, 0.2 mg/ml BSA, 50 μM sodium L-ascorbate, 5 μM ammonium ironII sulfate. Reaction product is determined quantitatively by AlphaScreen detection after the addition of detection reagents anti-H3K27me1 antibody, 5 μg/ml AlphaScreen® Streptavidin-coated Donor beads, and 5 μg/ml. AlphaScreen® Protein A Acceptor beads in 50 mM HEPES, pH 7.3, 10 mM NaCl, 0.005% Brij35, 10 mM :EDTA, 2 mg/ml BSA.
The assay reaction was initiated by the following: 3 μl of the mixture of 750 nM H3K27me3-biotin labeled peptide and 3 μM alpha-ketoglutaric acid with 3 μl of 11-point serial diluted inhibitor in 3% DMSO are added to each well of 384-well Proxiplate (Perkin Elmer), followed by the addition of 3 μl of 3 nM JMJD3 to initiate the reaction. The reaction mixture was incubated at room temp for 20 min, and terminated by the addition of 3 μl of appropriate dilution of anti-H3K27me1 antibody in 50 mM HEPES, pH 7.3, 10 mM NaCl, 0.005% Brij35, 10 mM EDTA, 2 mg/ml BSA. […] Plates were read by EnVision Multilabel Reader in AlphaScreen mode after minimum 2 hr incubation at room temp. […]
The ability to inhibit demethylase activity was quantified and the respective IC50 value was determined for substituted triazolylpyridine derivative compounds. […]

T1 sequence (O15054 1043-1682 isoform O15054-1): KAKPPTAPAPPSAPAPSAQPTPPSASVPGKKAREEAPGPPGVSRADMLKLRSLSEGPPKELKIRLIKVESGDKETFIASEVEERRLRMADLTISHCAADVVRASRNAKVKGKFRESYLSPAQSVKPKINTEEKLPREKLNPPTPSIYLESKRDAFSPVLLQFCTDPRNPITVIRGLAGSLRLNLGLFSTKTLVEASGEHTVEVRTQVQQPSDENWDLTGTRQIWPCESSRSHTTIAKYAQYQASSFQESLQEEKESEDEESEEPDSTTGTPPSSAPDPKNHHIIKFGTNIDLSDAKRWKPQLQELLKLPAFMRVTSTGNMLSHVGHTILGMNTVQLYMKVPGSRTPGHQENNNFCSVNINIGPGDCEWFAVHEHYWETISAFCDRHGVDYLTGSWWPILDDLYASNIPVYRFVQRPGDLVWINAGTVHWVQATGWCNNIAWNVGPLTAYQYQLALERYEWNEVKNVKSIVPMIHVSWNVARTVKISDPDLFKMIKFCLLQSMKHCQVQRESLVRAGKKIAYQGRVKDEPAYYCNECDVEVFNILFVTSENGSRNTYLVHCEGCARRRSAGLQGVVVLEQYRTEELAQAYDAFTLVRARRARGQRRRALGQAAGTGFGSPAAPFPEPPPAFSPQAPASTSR

Structure (SMILES) | IC50 [µM]
Fc1cnccc1-c1nn[nH]c1C(F)(F)F [Example 1, 3-fluoro-4-[5-(trifluoromethyl)-1H-1,2,3-triazol-4-yl]pyridine] | > 10
Fc1ccc(Cl)cc1Nc1cnccc1-c1nn[nH]c1C(F)(F)F [Example 2, N-(5-chloro-2-fluorophenyl)-4-[5-(trifluoromethyl)-1H-1,2,3-triazol-4-yl]pyridin-3-amine] | > 10
FC(F)(F)c1[nH]nnc1-c1ccncc1NCC1CCCc2ccccc21 (stereo not drawn) [Example 3, N-[(1,2,3,4-tetrahydronaphthalen-1-yl)methyl]-4-[5-(trifluoromethyl)-1H-1,2,3-triazol-4-yl]pyridine-3-amine] | > 10
